Ends that are not written are not given here.
Tests used:
cerebellar microexplants [1] = experiment: cerebellar microexplants, oxidative stress by 0.1 mM hydrogen peroxide; type: cell-based; conditions: 48 hrs
Description: In this series of experiments, we studied whether NRP-4 Segment PQ (“NRP-4 PQ”) was able to protect cerebellar microexplanted cells from oxidative injury. We exposed cells to vehicle, 0.1 mM hydrogen peroxide or different concentrations of NRP-4 PQ in vehicle. […] Although the mechanism for this potentiation of neurite outgrowth is uncertain, it may relieve the stresses associated with creating or maintaining the microexplants themselves.

hypoxic-ischemic injury = hypoxic-ischemic injury (HI) in adult rats, histological tissue damage score; type: in vivo, rat; conditions: five days after insult; for neuroprotection: ICV 2 hrs after hypoxia
Description: To test the efficacy of NRPs in vivo studies were carried out in rats that had been exposed to hypoxic-ischemic injury (HI). Adult rats (50 days old, Wistar, 250-300 g, male) were used. The modified Levine model preparation and experimental procedures were used (Rice et al, 1981, Ann. Neurol. 9: 131-141; Guan et al J., 1993, Cereb. Blood Flow Metab.: 13(4): 609-16). These procedures in brief, consist of an HI injury induced by unilateral carotid artery ligation followed by inhalational asphyxia in the animals with an implanted lateral ventricular cannula. A guide cannula was stereotaxically placed on the top of the dura 1.5 mm to the right of the mid-line and 7.5 mm anterior to the interaural zero plane under halothane anaesthesia. The right carotid artery was double ligated two days after the cannulation. After a 1-hour recovery period from anaesthesia, each of the rats was placed in an incubator where the humidity (90±5%) and temperature ([…]) were controlled for another hour, and then each of the rats was exposed to hypoxia (6% oxygen) for 10 min. The animals were kept in the incubator for an additional 2 hours before treatment.
Rats were treated intracerebral ventricularly (icv) with 5 nM (n=12), 50 nM (n=12) or 500 nM of NRP-4 segment PQ (PGRAEAGGQ; SEQ ID NO:43) dissolved in saline, or vehicle (n=10) (normal saline) 2 hours after hypoxic-ischemic insult.
Histological examination was performed on rats 5 days after the hypoxic-ischemic injury. The rats were killed with an overdose of sodium pentobarbital and were perfused transcardially with normal saline followed by 10% formalin. The brains were kept in the same fixative for a minimum of 2 days before being processed using a standard paraffin imbedding procedure.
Coronal sections 8 μm in thickness were cut from the striatum, cerebral cortex and hippocampus and were stained with thionin and acid fuchsin. The severity of tissue damage was scored in the striatum, cortex and the CA1-2, CA3, CA4 and dentate gyrus of the hippocampus. […]

cerebellar microexplants [2] = conditions: AT2 receptor agonist, 96 hours after start of cultivation (Cote et al., 1999); cited from earlier work
cerebellar microexplants [3] = experiment: cerebellar microexplant survival assay, 3-NP/glutamate injury; type: cell-based, rat
Description: Toxicological and drug administration experiments were designed such that 1/100 parts of toxin and neuroprotective drug were administered simultaneously to the freshly prepared cerebellar microexplants derived from P-4 or P8 rats. Glutamate was prepared as a 50 mM stock solution in MilliQ water while 50 mM 3-nitropropionic acid was pH-adjusted (pH 6.8-7.2) in MilliQ water. The concentrations of the oxidative stress inducing toxin, 3-nitropropionic acid (3-NP), and the excitotoxin, glutamate, in the assay were 0.5 mM each. Lyophilized peptides were reconstituted in PBS or 100 μg/ml human transferrin as a 10 μM stock solution. Subsequently, serial dilutions were made. Cerebellar microexplants were cultivated for 48-72 hours at 34° C., 5% CO2 in air and 100% humidity before they were fixed by increasing amounts of paraformaldehyde (0.4%, 1.2%, 3% and 4%—each treatment 2-3 min).
For statistical analysis of survival, four fields (each field having an area of 0.65 mm^2) of each fixed cerebellar culture with the highest cell densities were chosen, and cells displaying neurite outgrowth were counted. Statistical significance was measured by Student's t-test.
Laminated cerebellar cortex was extracted from P3/4, P7/8 rat pups and triturated through gauze having a 125 μm pore size to obtain uniformly sized microexplants. After centrifugation for 3 minutes at 61 g and the pellet was resuspended in StartV medium (Biochrom) and the suspension seeded on poly-D-lysine coated coverslips in 6-well plates and incubated for 3 hrs to allow adherence, before 1 ml StartV per well was added. As described previously, glutamate/3-NP and NRP were also added. The explants are cultivated at 34° C. at 5% CO2 and 100% humidity for 48-72 hrs. BrdU was administered at start of cultivation for proliferation rate measurements and cells are counted per microscopic field after 48-72 hrs.
Cerebellar Microexplants were prepared as described in Example 9 with the addition of SDF-1 as described, in addition to glutamate/3-NP, and NRP.
Cerebellar microexplants were prepared as described in Example 9 with the addition of SDF-1, Wortmannin and PD98059 (both Calbiochem), as described, in addition to glutamate/3-NP, and NRP.

mouse neural stem cells = experiment: haptotactic migration assay, mouse neural stem cells; type: cell-based
Description: NRPs were tested for migration-inducing/chemoattractive activity on mouse neural stem cells, EGF-dependent immortalized mouse neural stem cell line MEB5 and wild-type PC-12 cells in a haptotactic migration assay as described below.
Initial NRP Coating. Control wells of Transwell plates (Coming) with 12 μm pore size were coated in 1.5 ml of the BSA/PBS vehicle. Remaining plates were coated using various concentrations of NRPs ranging between 1-100 ng/ml (prepared in PBS containing 10 ug/ml BSA). The plates were then incubated at 37° C. for 1 hr to coat. Wells were then rinsed 2× with 1 ml sterile PBS.
Laminin ([…]) for MEB-5 cells, PDL (50 μg/ml)+Matrigel for mouse primary stem cells and fibronectin (25 ug/ml)+matrigel for PC-12 cells were used as extracellular matrix (ECM) coating for the cells. All ECM compounds were diluted in PBS. 1.5 ml of the ECM per well was incubated for 2 hrs at room temperature. The wells were then rinsed once with Iml serum-free media (e.g. NB/B27) followed by 1 ml PBS wash.
A 5 ug/mL PDL/PLL mixture (in PBS) was used to coat inserts. Subsequently the inserts were rinsed with MilliQ water.
Transferring to Media and Cell Seeding: Appropriate medium (MEB-5 cells: DMEM-high glucose+N2 (growth medium supplement from Invitrogen)+10 ng/biotin+2 mM L-glutamine, primary stem cells: NSA-medium from Euroclone and for PC-12 cells: NB/B27 medium) was transferred into the 12-well plates. […] Plates were fixed at 1-2 days in vitro (DIV).
Fixation: Inserts were discarded and wells fixed in successive dilutions of PFA (0.4, 1.2, 3 and 4%) for 3-5min in each dilution. […] The wells were rinsed and stored in PBS until counting.
A haptotactic migration assay was performed according to the description of Example 10 using rat NRP-9SD (SEQ ID NO:34) (4 nM) and mouse NRP-7SW (SEQ ID NO:24) (0.4 nM) as attractants in a Boyden chamber

[4] = test system: embryonic cerebellar microexplants; experiment: neural cell proliferation in embryonic cerebellar microexplants; type: cell-based
Text: In another set of studies, we determined effects of NRP-5 RG on induction of neural cell proliferation in embryonic cerebellar microexplants as described herein.

Row | Substance | neuroprotection (cerebellar microexplants [1]) | neuroprotection within all analysed brain regions (hypoxic-ischemic injury; 9 ng/20 μl icv 2 hrs after hypoxia) | neuroprotection (hypoxic-ischemic injury) | longest migration distances (cerebellar microexplants [2]) | higher neuroprotection than SEQ ID NO:46 (cerebellar microexplants [3]) | times higher potency than SEQ ID NO:46 (cerebellar microexplants [3]) | greater chemoattractive effect than control (BSA-containing) medium (mouse neural stem cells) | concentration of maximal proliferation-inducing activity [4]
1 | PGRAEAGGQ-NH2 [NRP-4 segment PQ, 9-mer of NRP-4] | even greater than that of control explants receiving no peroxide | 100% | substantial neuroprotection in all analysed brain regions |  |  |  |  | 
2 | CGP-42112 |  |  |  | around 550 im |  |  |  | 
3 | REGRRDAPGRAGG-NH2 [NRP-5 segment RG, 13-mer fragment of NRP-5] |  |  | substantial neuroprotection in all analysed brain regions |  | 20% | 10^6 to 10^7 times | 42.1% | 100 pM
